Data on five molecules can be found in patent US20230355617A1, “SMALL MOLECULE INHIBITORS OF LEMUR TYROSINE KINASE 3” (The University of Sussex, priority 2020, published 2023).

The structures appear in SMILES notation. Where two headings read alike, the source gives them in different places. Where a SMILES comes first, the peptide text is derived from it. The star is where a group is joined. Cbz = O=C(OCc1ccccc1)*

One data set has as its system FDCP1-parental. The experiment in a line: FDCP1 cell-based model, parental cells. Also noted: species or system murine.
Data set [1] deals with T1, LMTK3 (Homo sapiens, UniProt Q96Q04).
T1 construct: The wt kinase domain of LMTK3 (aa 134 to aa 444) was cloned into pOPINEneo; made in house; host or cells: Spodoptera frugiperda Sf9 (baculovirus)
T1 sequence (Q96Q04 105-415): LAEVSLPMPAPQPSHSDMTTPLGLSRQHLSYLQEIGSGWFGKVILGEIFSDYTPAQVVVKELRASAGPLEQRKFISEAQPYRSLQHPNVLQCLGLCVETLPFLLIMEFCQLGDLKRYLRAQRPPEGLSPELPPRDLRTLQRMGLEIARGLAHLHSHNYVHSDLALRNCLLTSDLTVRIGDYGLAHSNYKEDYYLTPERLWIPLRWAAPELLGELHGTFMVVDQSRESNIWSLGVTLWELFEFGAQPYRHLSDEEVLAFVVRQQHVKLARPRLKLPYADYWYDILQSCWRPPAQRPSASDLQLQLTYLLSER
Kind of data set: 32P γ-ATP in vitro kinase assay, phosphorylation of HSP27 by LMTK3. Type of data set: biochemical. Particulars: in vitro kinase assay; read-out: Approximate IC50.

In data set [2] the target is T2, LMTK3 (Homo sapiens, UniProt Q96Q04).
T2 construct: endogenous in cells; host or cells: MCF7, T47D, MDA-MB-231
T2 sequence (Q96Q04 21-1460): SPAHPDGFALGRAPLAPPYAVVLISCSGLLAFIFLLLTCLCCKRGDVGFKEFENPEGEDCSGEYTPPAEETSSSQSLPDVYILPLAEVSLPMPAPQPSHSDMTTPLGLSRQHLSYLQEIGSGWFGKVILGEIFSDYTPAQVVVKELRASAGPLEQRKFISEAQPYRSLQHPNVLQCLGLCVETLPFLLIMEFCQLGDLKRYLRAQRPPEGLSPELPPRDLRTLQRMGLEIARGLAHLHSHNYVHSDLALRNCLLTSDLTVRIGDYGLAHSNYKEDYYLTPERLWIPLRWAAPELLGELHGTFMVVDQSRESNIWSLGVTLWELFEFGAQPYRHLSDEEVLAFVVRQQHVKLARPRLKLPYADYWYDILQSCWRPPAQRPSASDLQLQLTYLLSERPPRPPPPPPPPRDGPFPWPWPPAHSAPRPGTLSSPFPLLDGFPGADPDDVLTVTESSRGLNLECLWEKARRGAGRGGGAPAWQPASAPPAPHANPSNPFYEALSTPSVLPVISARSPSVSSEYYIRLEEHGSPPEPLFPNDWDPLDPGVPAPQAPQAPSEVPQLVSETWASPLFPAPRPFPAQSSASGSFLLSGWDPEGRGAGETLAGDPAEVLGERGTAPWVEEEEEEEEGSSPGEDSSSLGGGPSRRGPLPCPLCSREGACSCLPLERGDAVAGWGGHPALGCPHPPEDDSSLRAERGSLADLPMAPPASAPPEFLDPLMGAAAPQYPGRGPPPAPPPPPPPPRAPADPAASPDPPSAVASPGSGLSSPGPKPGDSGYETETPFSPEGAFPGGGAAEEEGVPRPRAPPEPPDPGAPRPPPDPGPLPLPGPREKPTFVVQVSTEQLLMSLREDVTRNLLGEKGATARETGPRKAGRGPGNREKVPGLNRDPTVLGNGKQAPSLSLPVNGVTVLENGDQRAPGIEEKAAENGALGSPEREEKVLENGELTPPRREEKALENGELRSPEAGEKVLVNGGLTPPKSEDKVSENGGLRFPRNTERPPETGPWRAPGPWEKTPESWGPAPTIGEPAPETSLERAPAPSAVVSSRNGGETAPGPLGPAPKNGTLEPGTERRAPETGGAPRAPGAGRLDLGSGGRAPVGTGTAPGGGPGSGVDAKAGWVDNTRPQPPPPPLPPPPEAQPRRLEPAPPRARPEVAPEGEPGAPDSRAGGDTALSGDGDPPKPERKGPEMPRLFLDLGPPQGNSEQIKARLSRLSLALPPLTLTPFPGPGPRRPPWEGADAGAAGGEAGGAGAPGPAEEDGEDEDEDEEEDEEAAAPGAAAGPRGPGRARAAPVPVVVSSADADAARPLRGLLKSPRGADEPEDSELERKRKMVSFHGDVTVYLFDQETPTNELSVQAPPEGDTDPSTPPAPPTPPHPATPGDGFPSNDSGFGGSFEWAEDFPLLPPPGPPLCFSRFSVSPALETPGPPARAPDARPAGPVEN
Kind of data set: Western blotting of LMTK3 protein in BC cell lines. Type of data set: cell-based. Background: In western blotting, separated proteins are transferred to a membrane and probed.

A further data set has as its system ERα. Kind of data set: Western blotting of ERα protein in BC cell lines. Type of data set: cell-based, human. Conditions: MCF7, T47D, MDA-MB-231.
Data set [3] can be described thus: Pharmacokinetics after single IV, IP or PO dose. Type of data set: in vivo, mice.

With `Cc1ccc(-c2ccc3ncc(-c4cccc(OC(F)(F)F)c4)n3n2)cc1`, the IC50 in the data set with FDCP1-parental (Mus musculus, FDC-P1; read-out: FDCP1-parental IC50) is above 10 µM.
As to `FC(F)(F)Oc1cccc(-c2cnc3ccc(Cl)nn23)c1`, the IC50 with FDCP1-parental (Mus musculus, FDC-P1, read-out: FDCP1-parental IC50) was above 10 µM.
In the case of `FC(F)(F)Oc1cccc(-c2cnc3ccc(-c4ccccn4)nn23)c1` [Compound 337-1], the IC50 at LMTK3 [1] came to 0.4 µM.
Turning to `FC(F)(F)Oc1cccc(-c2cnc3ccc(-c4ccncc4)nn23)c1` [Compound C28, 6-(Pyridin-4-yl)-3-(3-(trifluoromethoxy)phenyl)imidazo[1,2-b]pyridazine], the “inhibition of LMTK3 protein levels in cancer cell lines” value at LMTK3 [2] (MCF7, T47D, MDA-MB-231) is recorded as “best inhibitor”. The LMTK3 protein levels result at LMTK3 [2] (MCF7, T47D, MDA-MB-231, increasing concentrations, different time points) is “time and dose-dependent degradation of LMTK3”. Moreover, the LMTK3 ubiquitination result at LMTK3 [2] (MCF7, 10 μM, 24 h) is recorded as “increased LMTK3 ubiquitination”. Moreover, the ERα protein levels entry in the data set with ERα was “decreased protein levels of ERα”. Further, the Cmax amounted to 839 ng/mL in data set [3] (IP 10 mg/kg); 185 ng/mL in data set [3] (IV 1 mg/kg); 1533 ng/mL in data set [3] (IV 5 mg/kg, plasma); 632 ng/mL in data set [3] (PO). Also, the T1/2 in data set [3] (IP 10 mg/kg) is listed as around 59 min; in data set [3] (IV 5 mg/kg), around 10 min; in data set [3] (PO), around 62 min. Moreover, the “lethality of IV dose” value in data set [3] (IV 5 mg/kg) is “lethal for some mice”. Moreover, the “time of peak concentration” value in data set [3] (IV 5 mg/kg, plasma) was 5 min. Further, the “peroral bioavailability (F)” value in data set [3] (based on incomplete data from 5 mg/kg IV group) came out at 54%.
Regarding `CC(C)C[C@@H](C=O)NC(=O)[C@H](CC(C)C)NC(=O)[C@H](CC(C)C)NC(=O)OCc1ccccc1` [MG132, reference compound] (Cbz-Leu-Leu-Leu-aldehyde), on LMTK3 [2] (10 μM MG132 4 h, then 10 μM C28 24 h), the “effect on C28-induced downregulation of LMTK3” value was “able to prevent C28-induced downregulation of LMTK3”.

As a reminder, the IC50 is the concentration needed to halve the response being measured. By Cmax is commonly meant the maximum level reached in the sampled fluid or tissue.
